The NIST ThermoML archive (doi:10.1021/je600519p)

Test: xn = mol fraction of the nth substance listed
Conditions: 101 kPa, Liquid

CC(=O)c1ccccc1 [acetophenone] + CCCCCCO
Conditions	mass density [kg/m3]	speed of sound [m/s]	viscosity [mPa·s]
293.15 K, x1 = 0.0498	828.69	1316	4.831
293.15 K, x1 = 0.1009	838.84	1323	4.397
293.15 K, x1 = 0.1517	848.99	1331	3.997
293.15 K, x1 = 0.2106	860.83	1341	3.605
293.15 K, x1 = 0.2474	868.27	1348	3.31
293.15 K, x1 = 0.3028	879.53	1358	2.986
293.15 K, x1 = 0.3426	887.67	1365	2.744
293.15 K, x1 = 0.3978	899.01	1375	2.491
293.15 K, x1 = 0.4512	910.05	1385	2.266
293.15 K, x1 = 0.4985	919.88	1394	2.085
293.15 K, x1 = 0.5526	931.2	1404	1.93
293.15 K, x1 = 0.6071	942.67	1415	1.798
293.15 K, x1 = 0.6491	951.55	1424	1.744
293.15 K, x1 = 0.7101	964.53	1437	1.65
293.15 K, x1 = 0.7485	972.75	1445	1.664
293.15 K, x1 = 0.8019	984.23	1457	1.673
293.15 K, x1 = 0.8521	995.09	1467	1.691
293.15 K, x1 = 0.9045	1006.5	1476	1.71
293.15 K, x1 = 0.9554	1017.63	1485	1.727
303.15 K, x1 = 0.0498	821.41	1285	3.559
303.15 K, x1 = 0.1009	831.48	1293	3.262
303.15 K, x1 = 0.1517	841.54	1302	2.989
303.15 K, x1 = 0.2106	853.28	1313	2.725
303.15 K, x1 = 0.2474	860.66	1320	2.511
303.15 K, x1 = 0.3028	871.83	1332	2.306
303.15 K, x1 = 0.3426	879.89	1340	2.148
303.15 K, x1 = 0.3978	891.14	1351	1.961
303.15 K, x1 = 0.4512	902.09	1362	1.805
303.15 K, x1 = 0.4985	911.85	1371	1.692
303.15 K, x1 = 0.5526	923.08	1382	1.583
303.15 K, x1 = 0.6071	934.47	1393	1.488
303.15 K, x1 = 0.6491	943.29	1402	1.442
303.15 K, x1 = 0.7101	956.19	1414	1.431
303.15 K, x1 = 0.7485	964.35	1421	1.426
303.15 K, x1 = 0.8019	975.77	1430	1.455
303.15 K, x1 = 0.8521	986.56	1439	1.465
303.15 K, x1 = 0.9045	997.88	1445	1.48
303.15 K, x1 = 0.9554	1008.95	1451	1.496
313.15 K, x1 = 0.0498	813.97	1277	2.684
313.15 K, x1 = 0.1009	823.85	1285	2.481
313.15 K, x1 = 0.1517	833.75	1293	2.292
313.15 K, x1 = 0.2106	845.32	1303	2.104
313.15 K, x1 = 0.2474	852.58	1310	1.977
313.15 K, x1 = 0.3028	863.61	1320	1.812
313.15 K, x1 = 0.3426	871.57	1328	1.697
313.15 K, x1 = 0.3978	882.7	1339	1.58
313.15 K, x1 = 0.4512	893.55	1350	1.483
313.15 K, x1 = 0.4985	903.23	1360	1.396
313.15 K, x1 = 0.5526	914.38	1370	1.322
313.15 K, x1 = 0.6071	925.7	1380	1.263
313.15 K, x1 = 0.6491	934.49	1387	1.255
313.15 K, x1 = 0.7101	947.35	1398	1.243
313.15 K, x1 = 0.7485	955.5	1404	1.252
313.15 K, x1 = 0.8019	966.9	1408	1.264
313.15 K, x1 = 0.8521	977.72	1409	1.266
313.15 K, x1 = 0.9045	989.09	1411	1.271
313.15 K, x1 = 0.9554	1000.23	1416	1.276
323.15 K, x1 = 0.0498	806.47	1230	2.119
323.15 K, x1 = 0.1009	816.28	1238	1.97
323.15 K, x1 = 0.1517	826.11	1247	1.831
323.15 K, x1 = 0.2106	837.59	1259	1.69
323.15 K, x1 = 0.2474	844.8	1266	1.585
323.15 K, x1 = 0.3028	855.74	1278	1.48
323.15 K, x1 = 0.3426	863.65	1287	1.395
323.15 K, x1 = 0.3978	874.71	1298	1.307
323.15 K, x1 = 0.4512	885.48	1308	1.236
323.15 K, x1 = 0.4985	895.1	1316	1.169
323.15 K, x1 = 0.5526	906.19	1326	1.118
323.15 K, x1 = 0.6071	917.44	1335	1.075
323.15 K, x1 = 0.6491	926.17	1342	1.069
323.15 K, x1 = 0.7101	938.95	1351	1.073
323.15 K, x1 = 0.7485	947.06	1356	1.075
323.15 K, x1 = 0.8019	958.4	1361	1.073
323.15 K, x1 = 0.8521	969.16	1365	1.067
323.15 K, x1 = 0.9045	980.48	1370	1.076
323.15 K, x1 = 0.9554	991.56	1372	1.086

CC(=O)c1ccccc1 [acetophenone] + CCOC(=O)OCC
Conditions	mass density [kg/m3]	speed of sound [m/s]	viscosity [mPa·s]
293.15 K, x2 = 0.0511	1025.19	1443	1.754
293.15 K, x2 = 0.1014	1023.01	1405	1.688
293.15 K, x2 = 0.1501	1020.69	1377	1.625
293.15 K, x2 = 0.1996	1018.39	1347	1.564
293.15 K, x2 = 0.2465	1016.19	1322	1.507
293.15 K, x2 = 0.3041	1013.29	1297	1.441
293.15 K, x2 = 0.3467	1011.15	1280	1.391
293.15 K, x2 = 0.4001	1008.46	1265	1.329
293.15 K, x2 = 0.4507	1005.89	1251	1.276
293.15 K, x2 = 0.4888	1003.9	1242	1.238
293.15 K, x2 = 0.5506	1000.67	1231	1.174
293.15 K, x2 = 0.6038	997.77	1222	1.122
293.15 K, x2 = 0.6498	995.25	1218	1.079
293.15 K, x2 = 0.7104	991.92	1215	1.025
293.15 K, x2 = 0.7513	989.53	1213	0.989
293.15 K, x2 = 0.8078	986.29	1210	0.941
293.15 K, x2 = 0.8522	983.66	1208	0.906
293.15 K, x2 = 0.8993	980.83	1207	0.869
293.15 K, x2 = 0.9488	977.82	1206	0.833
303.15 K, x2 = 0.0511	1016.4	1408	1.455
303.15 K, x2 = 0.1014	1014.09	1369	1.402
303.15 K, x2 = 0.1501	1011.77	1339	1.352
303.15 K, x2 = 0.1996	1009.35	1312	1.302
303.15 K, x2 = 0.2465	1007.04	1290	1.257
303.15 K, x2 = 0.3041	1004.02	1265	1.203
303.15 K, x2 = 0.3467	1001.78	1249	1.165
303.15 K, x2 = 0.4001	998.99	1232	1.118
303.15 K, x2 = 0.4507	996.27	1217	1.075
303.15 K, x2 = 0.4888	994.18	1208	1.042
303.15 K, x2 = 0.5506	990.73	1198	0.993
303.15 K, x2 = 0.6038	987.73	1194	0.952
303.15 K, x2 = 0.6498	985.06	1193	0.918
303.15 K, x2 = 0.7104	981.54	1192	0.875
303.15 K, x2 = 0.7513	979.05	1191	0.848
303.15 K, x2 = 0.8078	975.68	1190	0.811
303.15 K, x2 = 0.8522	972.91	1189	0.784
303.15 K, x2 = 0.8993	969.91	1188	0.755
303.15 K, x2 = 0.9488	966.78	1187	0.727
313.15 K, x2 = 0.0511	1007.58	1365	1.232
313.15 K, x2 = 0.1014	1005.19	1326	1.188
313.15 K, x2 = 0.1501	1002.73	1292	1.148
313.15 K, x2 = 0.1996	1000.2	1263	1.11
313.15 K, x2 = 0.2465	997.78	1238	1.073
313.15 K, x2 = 0.3041	994.63	1212	1.03
313.15 K, x2 = 0.3467	992.31	1196	0.998
313.15 K, x2 = 0.4001	989.35	1180	0.961
313.15 K, x2 = 0.4507	986.55	1168	0.925
313.15 K, x2 = 0.4888	984.35	1160	0.9
313.15 K, x2 = 0.5506	980.71	1153	0.86
313.15 K, x2 = 0.6038	977.48	1152	0.827
313.15 K, x2 = 0.6498	974.69	1151	0.799
313.15 K, x2 = 0.7104	971.04	1150	0.765
313.15 K, x2 = 0.7513	968.47	1149	0.742
313.15 K, x2 = 0.8078	964.89	1148	0.711
313.15 K, x2 = 0.8522	961.99	1147	0.688
313.15 K, x2 = 0.8993	958.99	1146	0.665
313.15 K, x2 = 0.9488	955.63	1145	0.641
323.15 K, x2 = 0.0511	998.79	1305	1.057
323.15 K, x2 = 0.1014	996.27	1265	1.023
323.15 K, x2 = 0.1501	993.68	1234	0.991
323.15 K, x2 = 0.1996	991.08	1208	0.959
323.15 K, x2 = 0.2465	988.56	1185	0.929
323.15 K, x2 = 0.3041	985.24	1164	0.893
323.15 K, x2 = 0.3467	982.8	1151	0.868
323.15 K, x2 = 0.4001	979.74	1137	0.837
323.15 K, x2 = 0.4507	976.77	1126	0.809
323.15 K, x2 = 0.4888	974.49	1121	0.787
323.15 K, x2 = 0.5506	970.76	1118	0.755
323.15 K, x2 = 0.6038	967.47	1117	0.727
323.15 K, x2 = 0.6498	964.54	1116	0.704
323.15 K, x2 = 0.7104	960.63	1115	0.676
323.15 K, x2 = 0.7513	957.86	1114	0.656
323.15 K, x2 = 0.8078	954.13	1113	0.631
323.15 K, x2 = 0.8522	951.07	1112	0.612
323.15 K, x2 = 0.8993	947.76	1111	0.592
323.15 K, x2 = 0.9488	944.32	1110	0.573
